According to publication PMC7725506, “Functional Diversification of SRSF Protein Kinase to Control Ubiquitin-Dependent Neurodevelopmental Signaling” (Developmental Cell, 2020):
pIC50: −log10 of the molar value.

Target: SRPK1 (Homo sapiens, UniProt Q96SB4)
Format: biochemical
Settings: in vitro, RNF12 phospho-Ser214 immunoblot quantified; read-out: IC50, inhibition of RNF12 phosphorylation by SRPK1
Description: Cells were lysed, and 1.5 mg of protein immunoprecipitated with 2 μg of SRPK1 or SRPK2 antibodies (BD Biosciences). Immunoprecipitates were then washed with lysis buffer supplemented with 500 mM NaCl and half of the sample was resuspended in loading buffer. The remainder was subjected to in vitro phosphorylation assay containing 0.5 μg RNF12 and 2 mM ATP in kinase buffer (50 mM Tris-HCl [pH 7.5], 0.1 mM EGTA, 10 mM MgCl2, 2 mM DTT) and incubated at 30°C for 30 min. […] For radioactive in vitro kinase assays, reactions were supplemented with 1 μCi γ-^32P ATP. Reactions were incubated at 30°C for 30 min in presence or absence of inhibitor as indicated and samples subjected to polyacrylamide electrophoresis and immunoblot or Coomassie blue staining and signal detected via ECL, infrared detection or autoradiography.
Supplemental Figure Legends
(Related to Figure 1). (A) Wild-type (WT) mESCs were analysed for protein copy number by absolute quantitative proteomics. […]
Data are represented as mean ± S.E.M. (n=3). […] ND = not detected. (B) Inhibition of RNF12 phosphorylation in vitro by SRPK1 and SRPK2 in the presence of varying concentrations of the indicated SRPK inhibitors was determined by immunoblotting for RNF12 phospho-Ser214 (Left). […] Immunoblots were quantified to generate SRPK inhibitor dose-response curves for inhibition of RNF12 phosphorylation by SRPK1 and SRPK2 in vitro (Right). […]

Sequence of SRPK1 (Q96SB4 whole entry): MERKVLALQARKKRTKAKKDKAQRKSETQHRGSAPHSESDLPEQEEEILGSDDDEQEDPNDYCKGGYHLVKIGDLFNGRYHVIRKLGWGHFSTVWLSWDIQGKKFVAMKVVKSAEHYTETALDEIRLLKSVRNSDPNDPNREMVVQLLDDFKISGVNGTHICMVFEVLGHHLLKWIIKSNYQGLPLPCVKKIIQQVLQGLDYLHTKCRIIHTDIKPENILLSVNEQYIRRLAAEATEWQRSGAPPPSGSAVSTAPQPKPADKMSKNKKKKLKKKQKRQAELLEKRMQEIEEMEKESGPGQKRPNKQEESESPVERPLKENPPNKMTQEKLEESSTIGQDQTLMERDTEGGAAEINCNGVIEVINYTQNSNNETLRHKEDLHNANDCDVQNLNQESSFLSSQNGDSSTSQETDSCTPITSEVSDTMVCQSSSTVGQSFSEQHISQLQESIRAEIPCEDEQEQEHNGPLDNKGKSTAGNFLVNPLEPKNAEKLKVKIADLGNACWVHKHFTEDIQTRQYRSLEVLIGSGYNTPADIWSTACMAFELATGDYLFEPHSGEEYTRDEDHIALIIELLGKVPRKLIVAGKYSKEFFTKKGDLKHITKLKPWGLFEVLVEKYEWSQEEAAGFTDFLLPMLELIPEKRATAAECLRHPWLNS

`CCc1cc2c(cc1-c1cccc(S(=O)(=O)F)c1)C(C)(C)c1[nH]c3cc(C#N)ccc3c1C2=O` [SRPKIN-1] was tested, and the pIC50 was 7.82.
